Source: US6737383B1, “Herbicidal oxadiazolidines” (priority 1999, dated 2004)

Assays:
blackgrass = experiment: Test B pre/postemergence blackgrass; type: in vivo, Alopecurus myosuroides
How it was run: (§1)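 Herbicidal effect was estimated by eye on a ten-point control scale after plants spent twelve to sixteen days in a greenhouse following soil or foliar treatment. Foliar sprays targeted plants at one to four leaves; all doses were formulated in a non-phytotoxic solvent with surfactant.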

pigweed = experiment: Test B pre/postemergence pigweed; type: in vivo, Amaranthus retroflexus
How it was run: as §1

corn = experiment: Test B pre/postemergence corn; type: in vivo, Zea mays
How it was run: as §1

purple nutsedge = experiment: Test B pre/postemergence purple nutsedge; type: in vivo, Cyperus rotundus
How it was run: as §1

smallflower flatsedge = experiment: Test B flood test smallflower flatsedge; type: in vivo, Cyperus difformis
How it was run: (§2)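 Each value is a visual injury score relative to controls, with 10 meaning complete control and 0 no effect. Evaluation took place twelve to sixteen days after the 2-leaf-stage plants were treated and kept in the greenhouse.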

duck salad = experiment: Test B flood test duck salad; type: in vivo, Heteranthera limosa
How it was run: as §2

wheat = experiment: Test B pre/postemergence wheat; type: in vivo, Triticum aestivum
How it was run: as §1

bedstraw = experiment: Test B pre/postemergence bedstraw; type: in vivo, Galium aparine
How it was run: as §1

soybean = experiment: Test B pre/postemergence soybean; type: in vivo, Glycine max
How it was run: as §1

morningglory = experiment: Test B pre/postemergence morningglory; type: in vivo, Ipomoea hederacea
How it was run: as §1

crabgrass = experiment: Test B pre/postemergence crabgrass; type: in vivo, Digitaria sanguinalis
How it was run: as §1

rice = experiment: Test B flood test rice; type: in vivo, Oryza sativa
How it was run: as §2

giant foxtail = experiment: Test B pre/postemergence giant foxtail; type: in vivo, Setaria faberii
How it was run: as §1

surinam grass = experiment: Test B pre/postemergence surinam grass; type: in vivo, Brachiaria decumbens
How it was run: as §1

velvetleaf = experiment: Test B pre/postemergence velvetleaf; type: in vivo, Abutilon theophrasti
How it was run: as §1

wild oat = experiment: Test B pre/postemergence wild oat; type: in vivo, Avena fatua
How it was run: as §1

[1] = Preemergence, Rate 62 g/ha, scale of 0 to 10 where 0 is no effect and 10 is complete control
[2] = Preemergence, Rate 250 g/ha, scale of 0 to 10 where 0 is no effect and 10 is complete control
[3] = Preemergence, Rate 500 g/ha, scale of 0 to 10 where 0 is no effect and 10 is complete control
[4] = Rate 62 g/ha, Postemergence, scale 0 to 10 (0 no effect, 10 complete control)
[5] = Rate 125 g/ha, Postemergence, scale of 0 to 10 where 0 is no effect and 10 is complete control
[6] = Rate 250 g/ha, Postemergence, scale of 0 to 10 where 0 is no effect and 10 is complete control
[7] = Rate 500 g/ha, Postemergence, scale 0 to 10, 0 no effect, 10 complete control
[8] = Rate 62 g/ha, headed Pre-emergence (flood test species), scale 0 to 10 (0 no effect, 10 complete control)
[9] = Rate 125 g/ha, Pre-emergence, flood test species, scale 0 to 10 where 0 is no effect and 10 is complete control
[10] = Rate 250 g/ha, Pre-emergence, flood-test species, scale 0 to 10, 0 is no effect, 10 is complete control
[11] = Rate 500 g/ha, Pre-emergence, flood test species, scale 0 to 10 (0 no effect, 10 complete control)

C=CCn1c(=O)on(C(=O)N(c2ccc(Cl)cc2)C(C)C2CC2)c1=O (centres unmarked) [Compound 325]
10: Giant foxtail plant response rating (giant foxtail; [3])
0: Blackgrass plant response rating (blackgrass; [1]) | Blackgrass plant response rating (blackgrass; [4]) | Blackgrass plant response rating (blackgrass; [5]) | Redroot pigweed plant response rating (pigweed; [1]) | Redroot pigweed plant response rating (0 to 10 scale) (pigweed; Preemergence, Rate 125 g/ha) | Redroot pigweed plant response rating (pigweed; [2]) | Redroot pigweed plant response rating (pigweed; [3]) | Redroot pigweed plant response rating (pigweed; [4]) | Redroot pigweed plant response rating (pigweed; [5]) | Corn plant response rating (corn; [1]) | Corn plant response rating (0 to 10 scale) (corn; Preemergence, Rate 125 g/ha) | Corn plant response rating (corn; [2]) | Corn plant response rating (corn; [3]) | Corn plant response rating (corn; [4]) | Corn plant response rating (corn; [5]) | Plant response rating, Corn (corn; [6]) | Plant response rating, Corn (corn; [7]) | Nutsedge plant response rating (purple nutsedge; [1]) | Nutsedge plant response rating (0 to 10 scale) (purple nutsedge; Preemergence, Rate 125 g/ha) | Nutsedge plant response rating (purple nutsedge; [2]) | Nutsedge plant response rating (purple nutsedge; [4]) | Nutsedge plant response rating (purple nutsedge; [5]) | Plant response rating, Nutsedge (purple nutsedge; [6]) | Plant response rating, Nutsedge (purple nutsedge; [7]) | S. Flatsedge plant response rating (smallflower flatsedge; [8]) | S. Flatsedge plant response rating (smallflower flatsedge; [9]) | S. Flatsedge plant response rating (smallflower flatsedge; [10]) | S. Flatsedge plant response rating (smallflower flatsedge; [11]) | Ducksalad plant response rating (duck salad; [8]) | Ducksalad plant response rating (duck salad; [9]) | Ducksalad plant response rating (duck salad; [10]) | Ducksalad plant response rating (duck salad; [11]) | Wheat plant response rating (wheat; [1]) | Wheat plant response rating (0 to 10 scale) (wheat; Preemergence, Rate 125 g/ha) | Wheat plant response rating (wheat; [2]) | Wheat plant response rating (wheat; [3]) | Wheat plant response rating (wheat; [4]) | Wheat plant response rating (wheat; [5]) | Bedstraw plant response rating (bedstraw; [1]) | Bedstraw plant response rating (0 to 10 scale) (bedstraw; Preemergence, Rate 125 g/ha) | Bedstraw plant response rating (bedstraw; [2]) | Bedstraw plant response rating (bedstraw; [3]) | Soybean plant response rating (soybean; [1]) | Soybean plant response rating (0 to 10 scale) (soybean; Preemergence, Rate 125 g/ha) | Soybean plant response rating (soybean; [2]) | Soybean plant response rating (soybean; [3]) | Morningglory plant response rating (morningglory; [1]) | Morningglory plant response rating (0 to 10 scale) (morningglory; Preemergence, Rate 125 g/ha) | Morningglory plant response rating (morningglory; [2]) | Morningglory plant response rating (morningglory; [3]) | Crabgrass plant response rating (crabgrass; [1]) | Crabgrass plant response rating (0 to 10 scale) (crabgrass; Preemergence, Rate 125 g/ha) | Crabgrass plant response rating (crabgrass; [4]) | Crabgrass plant response rating (crabgrass; [5]) | Plant response rating, Crabgrass (crabgrass; [6]) | Plant response rating, Crabgrass (crabgrass; [7]) | Rice plant response rating (rice; [8]) | Rice plant response rating (rice; [9]) | Rice plant response rating (rice; [10]) | Rice plant response rating (rice; [11]) | Giant foxtail plant response rating (giant foxtail; [4]) | Giant foxtail plant response rating (giant foxtail; [5]) | Plant response rating, Giant foxtail (giant foxtail; [6]) | Plant response rating, Giant foxtail (giant foxtail; [7]) | B. signalgrass plant response rating (surinam grass; [1]) | B. signalgrass plant response rating (0 to 10 scale, 0 is no effect, 10 is complete control) (surinam grass; Preemergence, Rate 125 g/ha) | B. signalgrass plant response rating (surinam grass; [2]) | B. signalgrass plant response rating (surinam grass; [3]) | B. signalgrass plant response rating (surinam grass; [4]) | B. signalgrass plant response rating (surinam grass; [5]) | Plant response rating, B. signalgrass (surinam grass; [6]) | Velvetleaf plant response rating (velvetleaf; [1]) | Velvetleaf plant response rating (0 to 10 scale) (velvetleaf; Preemergence, Rate 125 g/ha) | Velvetleaf plant response rating (velvetleaf; [2]) | Velvetleaf plant response rating (velvetleaf; [3]) | Velvetleaf plant response rating (velvetleaf; [4]) | Velvetleaf plant response rating (velvetleaf; [5]) | Plant response rating, Velvetleaf (velvetleaf; [6]) | Wild oats plant response rating (wild oat; [1]) | Wild oats plant response rating (0 to 10 scale) (wild oat; Preemergence, Rate 125 g/ha) | Wild oats plant response rating (wild oat; [2]) | Wild oats plant response rating (wild oat; [4]) | Wild oats plant response rating (wild oat; [5]) | Plant response rating, Wild oats (wild oat; [6])
7: Blackgrass plant response rating (blackgrass; [3]) | Plant response rating, Blackgrass (blackgrass; [7]) | Plant response rating, Redroot pigweed (pigweed; [7]) | Giant foxtail plant response rating (0 to 10 scale) (giant foxtail; Preemergence, Rate 125 g/ha)
2: Blackgrass plant response rating (blackgrass; [2]) | Plant response rating, Wheat (wheat; [6]) | Bedstraw plant response rating (bedstraw; [4]) | Soybean plant response rating (soybean; [4]) | Soybean plant response rating (soybean; [5]) | Crabgrass plant response rating (crabgrass; [3]) | Plant response rating, B. signalgrass (surinam grass; [7]) | Plant response rating, Velvetleaf (velvetleaf; [7]) | Wild oats plant response rating (wild oat; [3])
8: Bedstraw plant response rating (bedstraw; [5]) | Plant response rating, Morningglory (morningglory; [6]) | Plant response rating, Morningglory (morningglory; [7]) | Giant foxtail plant response rating (giant foxtail; [2])
4: Plant response rating, Redroot pigweed (pigweed; [6]) | Morningglory plant response rating (morningglory; [4]) | Plant response rating, Wild oats (wild oat; [7])
6: Morningglory plant response rating (morningglory; [5])
3: Plant response rating, Blackgrass (blackgrass; [6]) | Plant response rating, Soybean (soybean; [7]) | Giant foxtail plant response rating (giant foxtail; [1])
1: Blackgrass plant response rating (0 to 10 scale) (blackgrass; Preemergence, Rate 125 g/ha) | Plant response rating, Soybean (soybean; [6]) | Crabgrass plant response rating (crabgrass; [2])
5: Plant response rating, Wheat (wheat; [7])
